Laboratory results as given in patent publication US8492376B2, “Heteroaryl-cyclohexyl-tetraazabenzo[e]azulenes” (Hoffmann-La Roche Inc., priority 2010, dated 2013).
Where a name gives a salt, the structure may show the parent alone.

molecular target: T1, human V1a receptor (Homo sapiens, UniProt P37288); assay: human V1a receptor binding studies (3H-Vasopressin, SPA beads); settings: membranes from HEK293 cells transiently transfected with human V1a receptor, Ki calculated from IC50 by the Cheng-Prussoff equation, read-out: pKi (hV1a) (converted)
T1 construct: expressed in transfected cells; host or cells: HEK293 cells, transiently transfected; cell membranes
T1 sequence (P37288 whole entry): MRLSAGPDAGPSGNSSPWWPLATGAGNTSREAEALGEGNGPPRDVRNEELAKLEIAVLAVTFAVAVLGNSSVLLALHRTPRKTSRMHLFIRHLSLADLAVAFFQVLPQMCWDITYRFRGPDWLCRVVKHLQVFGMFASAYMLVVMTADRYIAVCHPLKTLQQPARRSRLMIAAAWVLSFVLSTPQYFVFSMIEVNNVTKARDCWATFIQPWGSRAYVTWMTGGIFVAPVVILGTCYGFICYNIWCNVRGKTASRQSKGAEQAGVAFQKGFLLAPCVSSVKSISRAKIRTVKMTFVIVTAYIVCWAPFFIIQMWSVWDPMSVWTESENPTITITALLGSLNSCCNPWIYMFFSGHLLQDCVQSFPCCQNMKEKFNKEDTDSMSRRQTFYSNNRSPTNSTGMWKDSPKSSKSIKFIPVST
Procedure: The human V1a receptor was cloned by RT-PCR from total human liver RNA. The coding sequence was subcloned in an expression vector after sequencing to confirm the identity of the amplified sequence. […] Cell membranes were prepared from HEK293 cells transiently transfected with the expression vector and grown in 20 liter fermenters with the following protocol.
50 g of cells are resuspended in 30 ml freshly prepared ice cold Lyses buffer (50 mM HEPES, 1 mM EDTA, 10 mM magnesium dichloride adjusted to pH=7.4+complete cocktail of protease inhibitor (Roche Diagnostics)). Homogenized with Polytron for 1 min and solicited on ice for 2×2 minutes at 80% intensity (Vibrate solicitor). The preparation is centrifuged 20 min at 500 g at 4° C., the pellet is discarded and the supernatant centrifuged 1 hour at 43′000 g at 4° C. (19′000 rpm). The pellet is resuspended in 12.5 ml Lyses buffer+12.5 ml sucrose 20% and homogenized using a Polytron for 1-2 min. The protein concentration is determined by the Bradford method and aliquots are stored at −80° C. until use. For binding studies 60 mg Yttrium silicate SPA beads (Habersham®) are mixed with an aliquot of membrane in binding buffer (50 mM Tris, 120 mM sodium chloride, 5 mM potassium chloride, 2 mM calcium dichloride, 10 mM magnesium dichloride) for 15 minutes with mixing. 50 μl of bead/membrane mixture is then added to each well of a 96 well plate, followed by 50 μl of 4 nM 3H-Vasopressin (American Radiolabeled Chemicals). For total binding measurement 100 μl of binding buffer are added to the respective wells, for non-specific binding 100 μl of 8.4 mM cold vasopressin and for compound testing 100 μl of a serial dilution of each compound in 2% dimethyl sulfoxide. The plate is incubated 1 h at room temperature, centrifuged 1 min at 1000 g and counted on a Packard Top-Count. Non-specific binding counts are subtracted from each well and data is normalized to the maximum specific binding set at 100%. To calculate an IC50 the curve is fitted using a non-linear regression model (XLfit) and the Ki is calculated using the Cheng-Prussoff equation.

CN1Cc2cc(Cl)ccc2-n2c(nnc2[C@H]2CC[C@H](c3cccc(Cl)n3)CC2)C1 [Example 18, trans-8-Chloro-1-[4-(6-chloro-pyridin-2-yl)-cyclohexyl]-5-methyl-5,6-dihydro-4H-2,3,5,10b-tetraaza-benzo[e]azulene] and Cc1cccc([C@H]2CC[C@H](c3nnc4n3-c3ccc(Cl)cc3CN(C)C4)CC2)n1 [Example 6, trans-8-Chloro-1-[4-(6-methyl-pyridin-2-yl)-cyclohexyl]-5-methyl-5,6-dihydro-4H-2,3,5,10b-tetraaza-benzo[e]azulene] are within 1.5-fold of each other in Ki: 0.603 nM for the first, 0.891 nM for the second.

Compared with Clc1ccc2c(c1)CNCc1nnc([C@H]3CC[C@H](c4cccc(Cl)n4)CC3)n1-2 [Example 17, trans-8-Chloro-1-[4-(6-chloro-pyridin-2-yl)-cyclohexyl]-5,6-dihydro-4H-2,3,5,10b-tetraaza-benzo[e]azulene], Fc1cccc([C@H]2CC[C@H](c3nnc4n3-c3ccc(Cl)cc3CNC4)CC2)n1 [Example 20, trans-8-Chloro-1-[4-(6-fluoro-pyridin-2-yl)-cyclohexyl]-5,6-dihydro-4H-2,3,5,10b-tetraaza-benzo[e]azulene] is 5.9-fold higher in Ki: 2.82 nM for the first, 16.6 nM for the second.

First: CCc1cccc([C@H]2CC[C@H](c3nnc4n3-c3ccc(Cl)cc3CNC4)CC2)n1 [Example 8, trans-8-Chloro-1-[4-(6-ethyl-pyridin-2-yl)-cyclohexyl]-5,6-dihydro-4H-2,3,5,10b-tetraaza-benzo[e]azulene]
Second: Cc1cccc([C@H]2CC[C@H](c3nnc4n3-c3ccc(Cl)cc3CNC4)CC2)n1 [Example 5, trans-8-Chloro-1-[4-(6-methyl-pyridin-2-yl)-cyclohexyl]-5,6-dihydro-4H-2,3,5,10b-tetraaza-benzo[e]azulene]
The Ki of the first is 3.2-fold higher: 44.7 nM for the first, 13.8 nM for the second.

Going from CN1Cc2cc(Cl)ccc2-n2c(nnc2[C@H]2CC[C@H](c3ccc(F)cn3)CC2)C1 [Example 24, trans-8-Chloro-1-[4-(5-fluoro-pyridin-2-yl)-cyclohexyl]-5-methyl-5,6-dihydro-4H-2,3,5,10b-tetraaza-benzo[e]azulene] to CN1Cc2cc(Cl)ccc2-n2c(nnc2[C@H]2CC[C@H](c3cccc(F)n3)CC2)C1 [Example 21, trans-8-Chloro-1-[4-(6-fluoro-pyridin-2-yl)-cyclohexyl]-5-methyl-5,6-dihydro-4H-2,3,5,10b-tetraaza-benzo[e]azulene], the Ki rises from 1 nM to 1.82 nM (1.8-fold).

First: CCc1cccc([C@H]2CC[C@H](c3nnc4n3-c3ccc(Cl)cc3CN(C(=O)OC(C)(C)C)C4)CC2)n1 [Example 7, trans-8-Chloro-1-[4-(6-ethyl-pyridin-2-yl)-cyclohexyl]-4H,6H-2,3,5,10b-tetraaza-benzo[e]azulene-5-carboxylic acid tert-butyl ester]
Second: Cc1cccc([C@H]2CC[C@H](c3nnc4n3-c3ccc(Cl)cc3CN(C(=O)OC(C)(C)C)C4)CC2)n1 [Example 4, trans-8-Chloro-1-[4-(6-methyl-pyridin-2-yl)-cyclohexyl]-4H,6H-2,3,5,10b-tetraaza-benzo[e]azulene-5-carboxylic acid tert-butyl ester]
The Ki of the first is 5-fold higher: 1 nM for the first, 0.2 nM for the second.

Clc1ccc2c(c1)CNCc1nnc([C@H]3CC[C@H](c4ncccc4Cl)CC3)n1-2 [Example 83, trans-8-Chloro-1-[4-(3-chloro-pyridin-2-yl)-cyclohexyl]-5,6-dihydro-4H-2,3,5,10b-tetraaza-benzo[e]azulene] and Clc1ccc2c(c1)CNCc1nnc([C@H]3CC[C@H](c4ncccn4)CC3)n1-2 [Example 59, trans-8-Chloro-1-(4-pyrimidin-2-yl-cyclohexyl)-5,6-dihydro-4H-2,3,5,10b-tetraaza-benzo[e]azulene] are within 1.5-fold of each other in Ki: 7.24 nM for the first, 9.33 nM for the second.

First: CC(C)c1cccc([C@H]2CC[C@H](c3nnc4n3-c3ccc(Cl)cc3CN(C)C4)CC2)n1 [Example 12, trans-8-Chloro-1-[4-(6-isopropyl-pyridin-2-yl)-cyclohexyl]-5-methyl-5,6-dihydro-4H-2,3,5,10b-tetraaza-benzo[e]azulene]
Second: CN1Cc2cc(Cl)ccc2-n2c(nnc2[C@H]2CC[C@H](c3cnccn3)CC2)C1 [Example 71, trans-8-Chloro-5-methyl-1-(4-pyrazin-2-yl-cyclohexyl)-5,6-dihydro-4H-2,3,5,10b-tetraaza-benzo[e]azulene]
The Ki of the first is 5-fold higher: 8.51 nM for the first, 1.7 nM for the second.

Compared with CN1Cc2cc(Cl)ccc2-n2c(nnc2[C@H]2CC[C@@H](c3ncccn3)CC2)C1 [Example 62, cis-8-Chloro-5-methyl-1-(4-pyrimidin-2-yl-cyclohexyl)-5,6-dihydro-4H-2,3,5,10b-tetraaza-benzo[e]azulene], CNCCN1Cc2cc(Cl)ccc2-n2c(nnc2[C@H]2CC[C@H](c3ncccc3F)CC2)C1 [Example 36, trans-(2-{8-Chloro-1-[4-(3-fluoro-pyridin-2-yl)-cyclohexyl]-4H,6H-2,3,5,10b-tetraaza-benzo[e]azulen-5-yl}-ethyl)-methyl-amine] is 3.4-fold lower in Ki: 95.5 nM for the first, 28.2 nM for the second.

First: CC(C)(C)OC(=O)N1Cc2cc(Cl)ccc2-n2c(nnc2[C@H]2CC[C@H](c3ccccn3)CC2)C1 [Example 1, trans-8-Chloro-1-(4-pyridin-2-yl-cyclohexyl)-4H,6H-2,3,5,10b-tetraaza-benzo[e]azulene-5-carboxylic acid tert-butyl ester]
Second: CC(C)(C)OC(=O)N1Cc2cc(Cl)ccc2-n2c(nnc2[C@H]2CC[C@H](c3cc(Cl)ccn3)CC2)C1 [Example 25, trans-8-Chloro-1-[4-(4-chloro-pyridin-2-yl)-cyclohexyl]-4H,6H-2,3,5,10b-tetraaza-benzo[e]azulene-5-carboxylic acid tert-butyl ester]
The Ki of the first is 4.5-fold higher: 1.91 nM for the first, 0.427 nM for the second.

Compared with Fc1cccnc1[C@H]1CC[C@H](c2nnc3n2-c2ccc(Cl)cc2CN(C2CCC2)C3)CC1 [Example 33, trans-8-Chloro-5-cyclobutyl-[4-(3-fluoro-pyridin-2-yl)-cyclohexyl]-5,6-dihydro-4H-2,3,5,10b-tetraaza-benzo[e]azulene], CC(=O)N1Cc2cc(Cl)ccc2-n2c(nnc2[C@H]2CC[C@H](c3ncccc3F)CC2)C1 [Example 37, trans-1-{8-Chloro-1-[4-(3-fluoro-pyridin-2-yl)-cyclohexyl]-4H,6H-2,3,5,10b-tetraaza-benzo[e]azulen-5-yl}-ethanone] is 5.4-fold higher in Ki: 0.302 nM for the first, 1.62 nM for the second.

Compared with Cc1cncc([C@H]2CC[C@H](c3nnc4n3-c3ccc(Cl)cc3CNC4)CC2)n1 [Example 73, trans-8-Chloro-1-[4-(6-methyl-pyrazin-2-yl)-cyclohexyl]-5,6-dihydro-4H-2,3,5,10b-tetraaza-benzo[e]azulene], Fc1ccc([C@H]2CC[C@H](c3nnc4n3-c3ccc(Cl)cc3CNC4)CC2)nc1 [Example 23, trans-8-Chloro-1-[4-(5-fluoro-pyridin-2-yl)-cyclohexyl]-5,6-dihydro-4H-2,3,5,10b-tetraaza-benzo[e]azulene dihydrochloride] is 7.6-fold lower in Ki: 55 nM for the first, 7.24 nM for the second.

First: CC(C)(C)OC(=O)N1Cc2cc(Cl)ccc2-n2c(nnc2[C@H]2CC[C@H](c3cccnc3)CC2)C1 [Example 48, trans-8-Chloro-1-(4-pyridin-3-yl-cyclohexyl)-4H,6H-2,3,5,10b-tetraaza-benzo[e]azulene-5-carboxylic acid tert-butyl ester]
Second: CC(C)(C)OC(=O)N1Cc2cc(Cl)ccc2-n2c(nnc2[C@H]2CC[C@H](c3cccnc3Cl)CC2)C1 [Example 51, trans-8-Chloro-1-[4-(2-chloro-pyridin-3-yl)-cyclohexyl]-4H,6H-2,3,5,10b-tetraaza-benzo[e]azulene-5-carboxylic acid tert-butyl ester]
The Ki of the first is 3.6-fold lower: 0.603 nM for the first, 2.19 nM for the second.

Cc1nccnc1[C@H]1CC[C@H](c2nnc3n2-c2ccc(Cl)cc2CNC3)CC1 [Example 76, trans-8-Chloro-1-[4-(3-methyl-pyrazin-2-yl)-cyclohexyl]-5,6-dihydro-4H-2,3,5,10b-tetraaza-benzo[e]azulene] and COc1cccc([C@H]2CC[C@H](c3nnc4n3-c3ccc(Cl)cc3CNC4)CC2)n1 [Example 14, trans-8-Chloro-1-[4-(6-methoxy-pyridin-2-yl)-cyclohexyl]-5,6-dihydro-4H-2,3,5,10b-tetraaza-benzo[e]azulene] are within 1.5-fold of each other in Ki: 44.7 nM for the first, 56.2 nM for the second.

First: CC(C)(C)OC(=O)N1Cc2cc(Cl)ccc2-n2c(nnc2[C@H]2CC[C@H](c3cccc(F)n3)CC2)C1 [Example 19, trans-8-Chloro-1-[4-(6-fluoro-pyridin-2-yl)-cyclohexyl]-4H,6H-2,3,5,10b-tetraaza-benzoazulene-5-carboxylic acid tert-butyl ester]
Second: Cc1cc(C)nc([C@H]2CC[C@H](c3nnc4n3-c3ccc(Cl)cc3CN(C(=O)OC(C)(C)C)C4)CC2)n1 [Example 63, trans-8-Chloro-1-[4-(4,6-dimethyl-pyrimidin-2-yl)-cyclohexyl]-4H,6H-2,3,5,10b-tetraaza-benzo[e]azulene-5-carboxylic acid tert-butyl ester]
The Ki of the first is 1.5-fold higher: 0.603 nM for the first, 0.398 nM for the second.
